Measured values: patent US7384788B2, “Regulator/promoter for tunable gene expression and metabolite sensing” (priority 2003, dated 2008)
Like-named read-outs stand apart in the source and are kept apart here.

Legend:
[1] = tested on: yhcRQP-luxCDABE gene fusion; experiment: Bioluminescence activation test in strain DPD2411, LB medium pH 7.0; assay type: cell-based, E. coli; settings: Experiment code A; for Concentration of maximum response: strain DPD2411, LB pH 7.0; for treated RLU: strain DPD2411, at concentration of maximum response; for Ratio: strain DPD2411, treated RLU/control RLU
Source text: (§1) A derivative of E. coli strain MG1655 (obtained from Prof. Douglas Berg, Washington University School of Medicine, St. Louis, […].) with the yhcS::TN<Kan> mutation was made by P1clr100Cm mediated transduction using phage grown on strain DPD2410 as a donor and selection for kanamycin resistance. The presence of the yhcS::TN<Kan> mutation in one of the resultant transductants, named DPD2433, was confirmed by PCR amplification. Plasmid pDEW655 was moved to E. coli strains MG1655 and DPD2433 by transformation, selecting for Ampicillin resistance to generate strains DPD2436 and DPD2437, respectively. The bioluminescent response of these two strains to pHBA was tested. Aliquots (50 μl) of actively growing cultures at 37° C. in LB medium that had been previously diluted, and from overnight cultures in LB medium with 150 μg/ml Ampicillin were added to 50 μl of LB medium at pH 7.0 containing pHBA as the sodium salt form. Several concentrations of pHBA were tested.
Further characterization of the signals that trigger activation of YhcS, was done using the yhcRQP-luxCDABE gene fusion containing E. coli strains DPD2411 or DPD2436. […] Several weak, aromatic acid molecules in addition to those shown in the Examples above activated expression.

BenM = BenM (Acinetobacter baylyi, UniProt O68014); settings: benzoic acid alone; cited from earlier work
Chain of BenM (O68014 whole entry, the tested form may be a part): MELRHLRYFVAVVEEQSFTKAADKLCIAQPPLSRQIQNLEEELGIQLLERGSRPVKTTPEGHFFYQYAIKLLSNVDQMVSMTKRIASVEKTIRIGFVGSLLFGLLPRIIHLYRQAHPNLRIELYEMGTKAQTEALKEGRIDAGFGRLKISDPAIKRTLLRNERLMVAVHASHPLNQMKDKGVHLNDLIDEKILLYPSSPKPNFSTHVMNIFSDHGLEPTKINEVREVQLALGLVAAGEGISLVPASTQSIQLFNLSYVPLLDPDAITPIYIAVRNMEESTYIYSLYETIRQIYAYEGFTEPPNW

[2] = tested on: yhcRQP-luxCDABE gene fusion; experiment: LuxArray bioluminescent response, strain DPD2411 (tolC- host); assay type: cell-based, E. coli; settings: for Replica 1 normalized RLU / Replica 2 normalized RLU: LB medium; for upregulation of gene fusion lux-a.pk035.c7 in LuxArray profile: pHCA 10 mM and 5 mM, CA 8 mM and 4 mM; for bioluminescent response of the yhcRQP-luxCDABE gene fusion (in words): time points other than the zero time point
[3] = tested on: yhcRQP-luxCDABE gene fusion; experiment: Bioluminescence response in yhcS+ strain DPD2436 (MG1655 host); assay type: cell-based, E. coli; settings: for Concentration of maximum response: strain DPD2436, LB pH 7.0; for treated RLU: strain DPD2436, at concentration of maximum response; for Ratio: strain DPD2436, treated RLU/control RLU
Source text: as §1, with “The presence of the yhcS::TN<Kan> mutation in one of the resultant transductants, named DPD2433, was confirmed by PCR amplification.” left out
Further characterization of the signals that trigger activation of YhcS, was done using the yhcRQP-luxCDABE gene fusion containing E. coli strains DPD2411 or DPD2436.

[4] = tested on: lysU-luxCDABE gene fusion; settings: for activation of acid responsive lysU-luxCDABE gene fusion (in words): concentrations tested, 100 minutes; for RLU at 100 minutes: lysU-luxCDABE, pH 7.0
Source text: (§2) Three E. coli strains, each in the same host strain but carrying different, plasmid-borne, promoter-luxCDABE fusions were used. Strain DPD2411 contains a yhcRQP-luxCDABE gene fusion as described in Example 2. Strain DPD2084 contains a yciG-luxCDABE gene fusion that has been previously described. Strain DPD3282 contains a lysU-luxCDABE gene fusion that was part of the LuxA collection of gene fusions, described in Example 2. The plasmid in this strain, pDEW558, contains an E. coli chromosomal segment between nucleotides 4350990 and 4353107 according to the E. coli genomic sequence; the orientation of the chromosomal segment is such that the lysU promoter region controls expression of luxCDABE. Each of these three strains was grown overnight in Vogel-Bonner minimal medium with 0.4% glucose as the carbon source and supplemented with L-proline, L-lysine, uracil and 25 μg/ml Ampicillin. The overnight cultures were diluted into the same medium except lacking Ampicillin and incubated at 37° C. until in mid-exponential growth. Aliquots (50 μl) of these actively growing cultures were added to 50 μl of the same medium at pH 7.0 without Ampicillin but containing various concentrations of sodium acetate or sodium salicylate in the wells of a 96 well, white microplate (Microlite, Dynex Technologies). Immediately after adding the cell culture, the bioluminescence was quantitated in a microplate luminometer in the kinetic mode.

[5] = tested on: yhcRQP-luxCDABE gene fusion; settings: for activation of expression of yhcRQP-luxCDABE (in words): concentrations tested, 100 minutes; for RLU at 100 minutes: yhcRQP-luxCDABE, pH 7.0
Source text: as §2

[6] = tested on: yciG-luxCDABE gene fusion; settings: for activation of acid responsive yciG-luxCDABE gene fusion (in words): concentrations tested, 100 minutes; for RLU at 100 minutes: yciG-luxCDABE, pH 7.0
Source text: as §2

With `O=C(O)c1cccc2ccccc12` [1-napthoate] the “Concentration of maximum response” value [1] was 2.5 mM, the “treated RLU” value [1] was 29.662 RLU and the Ratio [1] was 132.
In the case of `O=C(O)c1ccccc1` [Benzoic acid, benzoic acid], the “induction of BenM activity” value (BenM) is listed as “minimal, if any, induction”.
For `O=C(O)C=Cc1ccccc1` [CA, cinnamic acid], the “Replica 1 normalized RLU” value ([2]; 4 mM CA, 0 min) was 0.026 RLU, the “Replica 2 normalized RLU” value ([2]; 4 mM CA, 0 min) was 0.062 RLU and the “Replica 1 normalized RLU” value ([2]; 4 mM CA, 45 min) was 4.092 RLU. The “Replica 2 normalized RLU” value ([2]; 4 mM CA, 45 min) was 2.928 RLU, the “Replica 1 normalized RLU” value ([2]; 4 mM CA, 90 min) was 5.845 RLU and the “Replica 2 normalized RLU” value ([2]; 4 mM CA, 90 min) was 4.951 RLU. The “Replica 1 normalized RLU” value ([2]; 4 mM CA, 135 min) was 5.394 RLU, the “Replica 2 normalized RLU” value ([2]; 4 mM CA, 135 min) was 3.678 RLU and the “Replica 1 normalized RLU” value ([2]; 8 mM CA, 0 min) was 0.022 RLU. The “Replica 2 normalized RLU” value ([2]; 8 mM CA, 0 min) was 0.054 RLU, the “Replica 1 normalized RLU” value ([2]; 8 mM CA, 45 min) was 4.937 RLU and the “Replica 2 normalized RLU” value ([2]; 8 mM CA, 45 min) was 3.405 RLU. The “Replica 1 normalized RLU” value ([2]; 8 mM CA, 90 min) was 8.379 RLU, the “Replica 2 normalized RLU” value ([2]; 8 mM CA, 90 min) was 6.193 RLU and the “Replica 1 normalized RLU” value ([2]; 8 mM CA, 135 min) was 6.981 RLU. The “Replica 2 normalized RLU” value ([2]; 8 mM CA, 135 min) was 5.746 RLU, the “upregulation of gene fusion lux-a.pk035.c7 in LuxArray profile” value [2] was “several hundred-fold upregulated” and the “bioluminescent response of the yhcRQP-luxCDABE gene fusion (in words)” value (from here on “bioluminescent response”) [2] was “dramatic upregulation”.
For `O=C([O-])c1ccccc1.[Na+]` [Sodium benzoate], the “Concentration of maximum response” value ([3]; Experiment code B) was 6.2 mM, the “treated RLU” value ([3]; Experiment code B) was 3.759 RLU and the Ratio ([3]; Experiment code B) was 13. The “Concentration of maximum response” value ([3]; Experiment code C) was 12.5 mM, the “treated RLU” value ([3]; Experiment code C) was 8.093 RLU and the Ratio ([3]; Experiment code C) was 12.
For `O=C([O-])c1ccc(O)cc1.[Na+]` [Sodium pHBA], the “Concentration of maximum response” value ([3]; Experiment code C) was 50 mM, the “treated RLU” value ([3]; Experiment code C) was 91.658 RLU and the Ratio ([3]; Experiment code C) was 145. The “Concentration of maximum response” value ([3]; Experiment code D) was 50 mM, the “treated RLU” value ([3]; Experiment code D) was 48.643 RLU and the Ratio ([3]; Experiment code D) was 248. The “Concentration of maximum response” value [1] was 25 mM, the “treated RLU” value [1] was 69.678 RLU and the Ratio [1] was 302.
In the case of `O=C([O-])c1ccccc1O.[Na+]` [Sodium salicylate], the “Concentration of maximum response” value ([3]; Experiment code D) is reported as 6.2 mM, the “treated RLU” value ([3]; Experiment code D) is reported as 14.703 RLU and the Ratio ([3]; Experiment code D) is reported as 77. The “activation of acid responsive lysU-luxCDABE gene fusion (in words)” value [4] was “did not increase expression”, the “RLU at 100 minutes” value ([4]; 0.6 mM salicylate) was 1.3 RLU and the “RLU at 100 minutes” value ([4]; 5.0 mM salicylate) was 0.89 RLU. For the same compound, the “activation of expression of yhcRQP-luxCDABE (in words)” value [5] was “upregulated expression”, the “RLU at 100 minutes” value ([5]; 0.6 mM salicylate) was 7.9 RLU and the “RLU at 100 minutes” value ([5]; 5.0 mM salicylate) was 26.0 RLU. For the same compound, the “activation of acid responsive yciG-luxCDABE gene fusion (in words)” value [6] was “did not increase expression”, the “RLU at 100 minutes” value ([6]; 0.6 mM salicylate) was 0.19 RLU and the “RLU at 100 minutes” value ([6]; 5.0 mM salicylate) was 0.13 RLU.
In the case of `CC(=O)[O-].[Na+]` [acetate, sodium acetate], the “activation of acid responsive lysU-luxCDABE gene fusion (in words)” value [4] is reported as “did activate”, the “RLU at 100 minutes” value ([4]; 80 mM acetate) is reported as 1.4 RLU and the “RLU at 100 minutes” value ([4]; 160 mM acetate) is reported as 6.0 RLU. The “activation of expression of yhcRQP-luxCDABE (in words)” value [5] was “did not activate expression”, the “RLU at 100 minutes” value ([5]; 80 mM acetate) was 0.14 RLU and the “RLU at 100 minutes” value ([5]; 160 mM acetate) was 0.08 RLU. The “activation of acid responsive yciG-luxCDABE gene fusion (in words)” value [6] was “did activate”, the “RLU at 100 minutes” value ([6]; 80 mM acetate) was 0.35 RLU and the “RLU at 100 minutes” value ([6]; 160 mM acetate) was 0.80 RLU.
For `CCO` [ethanol], the “Replica 1 normalized RLU” value ([2]; 3% ethanol, 0 min) was 0.024 RLU, the “Replica 2 normalized RLU” value ([2]; 3% ethanol, 0 min) was 0.038 RLU and the “Replica 1 normalized RLU” value ([2]; 3% ethanol, 45 min) was 0.024 RLU. For the same compound, the “Replica 2 normalized RLU” value ([2]; 3% ethanol, 45 min) was 0.029 RLU, the “Replica 1 normalized RLU” value ([2]; 3% ethanol, 90 min) was 0.022 RLU and the “Replica 2 normalized RLU” value ([2]; 3% ethanol, 90 min) was 0.026 RLU. The “Replica 1 normalized RLU” value ([2]; 3% ethanol, 135 min) was 0.012 RLU, the “Replica 2 normalized RLU” value ([2]; 3% ethanol, 135 min) was 0.014 RLU and the “Replica 1 normalized RLU” value ([2]; 5% ethanol, 0 min) was 0.022 RLU. For the same compound, the “Replica 2 normalized RLU” value ([2]; 5% ethanol, 0 min) was 0.037 RLU, the “Replica 1 normalized RLU” value ([2]; 5% ethanol, 45 min) was 0.014 RLU and the “Replica 2 normalized RLU” value ([2]; 5% ethanol, 45 min) was 0.017 RLU. The “Replica 1 normalized RLU” value ([2]; 5% ethanol, 90 min) was 0.022 RLU, the “Replica 2 normalized RLU” value ([2]; 5% ethanol, 90 min) was 0.017 RLU and the “Replica 1 normalized RLU” value ([2]; 5% ethanol, 135 min) was 0.015 RLU. For the same compound, the “Replica 2 normalized RLU” value ([2]; 5% ethanol, 135 min) was 0.014 RLU and the “bioluminescent response” value [2] was “does not induce increased bioluminescence”.
For `O=C(O)C=Cc1ccc(O)cc1` [pHCA, para-hydroxycinnamic acid], the “Replica 1 normalized RLU” value ([2]; 5 mM pHCA, 0 min) was 0.056 RLU, the “Replica 2 normalized RLU” value ([2]; 5 mM pHCA, 0 min) was 0.043 RLU and the “Replica 1 normalized RLU” value ([2]; 5 mM pHCA, 45 min) was 10.695 RLU. For the same compound, the “Replica 2 normalized RLU” value ([2]; 5 mM pHCA, 45 min) was 9.325 RLU, the “Replica 1 normalized RLU” value ([2]; 5 mM pHCA, 90 min) was 14.276 RLU and the “Replica 2 normalized RLU” value ([2]; 5 mM pHCA, 90 min) was 14.754 RLU. For the same compound, the “Replica 1 normalized RLU” value ([2]; 5 mM pHCA, 135 min) was 13.533 RLU, the “Replica 2 normalized RLU” value ([2]; 5 mM pHCA, 135 min) was 10.587 RLU and the “Replica 1 normalized RLU” value ([2]; 10 mM pHCA, 0 min) was 0.056 RLU. The “Replica 2 normalized RLU” value ([2]; 10 mM pHCA, 0 min) was 0.034 RLU, the “Replica 1 normalized RLU” value ([2]; 10 mM pHCA, 45 min) was 9.094 RLU and the “Replica 2 normalized RLU” value ([2]; 10 mM pHCA, 45 min) was 7.31 RLU. For the same compound, the “Replica 1 normalized RLU” value ([2]; 10 mM pHCA, 90 min) was 14.314 RLU, the “Replica 2 normalized RLU” value ([2]; 10 mM pHCA, 90 min) was 11.164 RLU and the “Replica 1 normalized RLU” value ([2]; 10 mM pHCA, 135 min) was 15.283 RLU. The “Replica 2 normalized RLU” value ([2]; 10 mM pHCA, 135 min) was 12.867 RLU, the “upregulation of gene fusion lux-a.pk035.c7 in LuxArray profile” value [2] was “several hundred-fold upregulated” and the “bioluminescent response” value [2] was “dramatic upregulation”.
